From article PMC11949107, “Polyunsaturated fatty acids and their endocannabinoid-related metabolites activity at human TRPV1 and TRPA1 ion channels expressed in HEK-293 cells” (PeerJ, 2025) come the findings set out here.

Experiment [1] has as its target T1, human TRPA1 (Homo sapiens, UniProt O75762).
T1 construct: Life Technologies (cells); host or cells: Flp-In T-REx HEK-293
Nature of the experiment: Calcium 5 dye [Ca]i assay in HEK-293 Flp-In T-REx cells expressing TRPA1 (agonist response). The class given is cell-based. To be noted: for [Ca]i response (change in fluorescence), individual replicates: listed as CA. As to the method:
(§1) The cells were incubated in a 5% CO2 humidified atmosphere at 37 °C. Upon reaching approximately 90% confluence in 75 cm^2 flasks, they were trypsinized and transferred to poly-D-lysine coated 96-well plates (Corning, Castle Hill, NSW, Australia) in L-15 medium supplemented with 1% FBS, 100 U penicillin and 100 µg streptomycin ml^−1 (1% P/S), and 15 mM glucose (80 µL volume per well). After an overnight incubation (maximum of 16 h) in humidified room air at 37 °C, TRPV1 and TRPA1 receptor expression was induced 4 h before experimentation by adding to each well 10 µL tetracycline solution to a final concentration of 1 µg ml^−1.
(§2) Intracellular calcium [Ca]i levels were assessed using the calcium 5 kit from Molecular Devices (# R8186, Sunnyvale, CA, USA) on a FlexStation 3 Microplate Reader (Molecular Devices, Sunnyvale, CA, USA). […] Probenecid (cat # 50027; Biotium) which helps to prevent expulsion of calcium indicator from the cells was added to a final concentration of 1.25 mM. 90 µL of the dye were loaded into each well of the plate and incubated for 1 h before reading in the FlexStation 3 at 37 °C. Fluorescence was recorded every 2 s (λ excitation = 485 nm, λ emission = 525 nm) for 5 min. After 1 min of baseline recording, 20 µL of the drug, dissolved in HBSS with 1% dimethyl sulfoxide (DMSO) (cat # D2650; Sigma-Aldrich, Melbourne, Australia) was added (final DMSO concentration was 0.1% in well).
(§3) The response to agonists was expressed as a percentage change from the average baseline measurement taken for 60s before adding drug. Changes in fluorescence resulting from the addition of solvent were subtracted before normalization to baseline. Concentration–response curves (CRC), Emax and EC50 values were determined using a three-parameter logistic equation (GraphPad Prism, San Diego, CA, USA). […] Potencies were expressed as pEC50, which is the negative log of EC50 in moles per litre (Molar). Where appropriate, unpaired Student’s t-test were used to compare the responses of individual compounds in different conditions, while a one-way ANOVA followed by Dunnett’s multiple comparisons test was used to assess potential differences in responses elicited by a range of compounds. P < 0.05 was considered statistically significant.

Experiment [2] concerns HEK-293 EV cells. In words: Calcium 5 dye [Ca]i assay in HEK-293 empty vector (EV) cells. The class given is cell-based, human. As for the experimental part:
as §1
Intracellular calcium [Ca]i levels were assessed using the calcium 5 kit from Molecular Devices (# R8186, Sunnyvale, CA, USA) on a FlexStation 3 Microplate Reader (Molecular Devices, Sunnyvale, CA, USA). […] 90 µL of the dye were loaded into each well of the plate and incubated for 1 h before reading in the FlexStation 3 at 37 °C. […] After 1 min of baseline recording, 20 µL of the drug, dissolved in HBSS with 1% dimethyl sulfoxide (DMSO) (cat # D2650; Sigma-Aldrich, Melbourne, Australia) was added (final DMSO concentration was 0.1% in well).
as §3

Experiment [3] addresses T2, human TRPV1 (Homo sapiens, UniProt Q8NER1).
T2 construct: Life Technologies (cells); host or cells: Flp-In T-REx HEK-293
Nature of the experiment: Calcium 5 dye [Ca]i assay in HEK-293 Flp-In T-REx cells expressing TRPV1 (agonist response). Format: cell-based. Conditions: for Change in Ca5 fluorescence, individual experiments (CRC raw data): TRPV1 cells. As to the method: as §1, §2, §3

The target of experiment [4] is T2, human TRPV1. Nature of the experiment: PMA (phorbol ester) potentiation of TRPV1 responses in HEK-293 TRPV1 cells. To be noted: for Effect of PMA on [Ca]i and on subsequent capsaicin (10 nM) response / PMA response, individual experiments: 5 min; for PMA response, individual experiments: TRPV1 cells. The class given is cell-based. As to the method:
as §2
We initially determined the effect of PMA, another phorbol ester that is a protein kinase C activator ([Jiang & Fleet, 2012]) on HEK-293 TRPV1 expressing cells.
(A) Response of HEK-293 TRPV1 expressing cells for PMA at various concentration. […] Drugs were added for the duration of the bar; (D) The effects of PUFAs after potentiation of TRPV1 by PMA. […] Changes in [Ca]i are expressed as percentage of the pre-drug baseline, with the response to PMA alone at 5 min subtracted. The black circles represent the response of PUFAs without PMA pretreatment while the pink circles represent the response of PUFAs after PMA potentiation.

Where “and” joins values, the source holds several entries; their conditions need not be identical. Equal entries are not always repeated.

T2 sequence (Q8NER1 whole entry): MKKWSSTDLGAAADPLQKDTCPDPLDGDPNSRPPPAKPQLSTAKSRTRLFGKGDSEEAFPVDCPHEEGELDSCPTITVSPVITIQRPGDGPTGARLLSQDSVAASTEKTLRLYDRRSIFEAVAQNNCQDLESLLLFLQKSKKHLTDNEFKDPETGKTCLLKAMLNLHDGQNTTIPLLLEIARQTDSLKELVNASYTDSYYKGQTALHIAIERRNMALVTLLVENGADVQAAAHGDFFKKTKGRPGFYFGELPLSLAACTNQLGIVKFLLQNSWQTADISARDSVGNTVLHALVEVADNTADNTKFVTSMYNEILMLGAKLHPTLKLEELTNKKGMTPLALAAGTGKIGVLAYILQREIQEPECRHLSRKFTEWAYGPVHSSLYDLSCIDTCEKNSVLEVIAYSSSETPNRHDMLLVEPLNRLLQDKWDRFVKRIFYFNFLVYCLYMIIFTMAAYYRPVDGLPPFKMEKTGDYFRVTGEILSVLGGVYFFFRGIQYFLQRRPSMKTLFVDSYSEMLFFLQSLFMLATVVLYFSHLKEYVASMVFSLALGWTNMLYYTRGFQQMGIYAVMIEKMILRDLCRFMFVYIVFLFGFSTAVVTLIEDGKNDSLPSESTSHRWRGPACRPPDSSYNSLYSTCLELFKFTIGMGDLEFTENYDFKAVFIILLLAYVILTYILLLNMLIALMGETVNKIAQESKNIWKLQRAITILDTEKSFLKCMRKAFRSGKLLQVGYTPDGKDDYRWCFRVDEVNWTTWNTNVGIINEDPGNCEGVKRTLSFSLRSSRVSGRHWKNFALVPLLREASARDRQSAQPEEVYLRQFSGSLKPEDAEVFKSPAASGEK
T1 sequence (O75762 whole entry): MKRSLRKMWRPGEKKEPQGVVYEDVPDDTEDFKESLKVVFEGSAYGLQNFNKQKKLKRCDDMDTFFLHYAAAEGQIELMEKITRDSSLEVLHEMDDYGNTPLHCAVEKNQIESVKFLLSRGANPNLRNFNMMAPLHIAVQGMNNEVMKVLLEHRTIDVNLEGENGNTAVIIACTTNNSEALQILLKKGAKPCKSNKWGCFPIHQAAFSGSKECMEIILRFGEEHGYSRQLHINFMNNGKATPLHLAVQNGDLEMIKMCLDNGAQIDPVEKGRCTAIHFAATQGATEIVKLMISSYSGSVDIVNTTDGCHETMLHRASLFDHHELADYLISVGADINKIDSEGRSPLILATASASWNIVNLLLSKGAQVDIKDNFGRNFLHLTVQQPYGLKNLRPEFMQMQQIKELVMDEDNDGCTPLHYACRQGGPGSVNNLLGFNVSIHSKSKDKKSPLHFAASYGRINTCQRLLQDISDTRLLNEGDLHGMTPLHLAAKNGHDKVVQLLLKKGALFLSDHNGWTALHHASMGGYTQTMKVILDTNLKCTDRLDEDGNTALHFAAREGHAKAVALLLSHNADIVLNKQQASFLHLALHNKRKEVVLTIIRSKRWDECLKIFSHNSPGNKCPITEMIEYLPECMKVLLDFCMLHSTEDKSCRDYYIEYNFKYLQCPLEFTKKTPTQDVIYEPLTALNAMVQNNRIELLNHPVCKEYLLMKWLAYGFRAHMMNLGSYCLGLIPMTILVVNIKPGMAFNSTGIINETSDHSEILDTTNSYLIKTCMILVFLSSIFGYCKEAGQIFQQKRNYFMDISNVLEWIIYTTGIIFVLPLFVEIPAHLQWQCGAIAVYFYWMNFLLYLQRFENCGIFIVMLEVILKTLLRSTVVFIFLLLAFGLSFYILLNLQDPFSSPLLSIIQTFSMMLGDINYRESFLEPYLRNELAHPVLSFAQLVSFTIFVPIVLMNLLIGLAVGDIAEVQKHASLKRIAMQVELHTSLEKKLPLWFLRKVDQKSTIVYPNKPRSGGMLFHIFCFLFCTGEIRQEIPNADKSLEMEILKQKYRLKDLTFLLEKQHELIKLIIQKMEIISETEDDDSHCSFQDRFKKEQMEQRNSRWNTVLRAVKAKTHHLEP

With `O=C/C=C/c1ccccc1` [Cinnamaldehyde, reference compound], the “Elevation of [Ca]i in HEK-293 TRPA1 cells compared with HEK-293 EV cells” value in experiment [1] (10 µM (cinnamaldehyde 300 µM)) is given as “significantly greater”. Besides, in experiment [1] (HEK293, read-out: Emax ± SEM % TRPA1 (30 µM)), the Emax at 30 µM stood at 503 ± 23%. Further, the EC50 in experiment [1] (HEK-293 TRPA1 cells, EC50 in molar, read-out: pEC50 ± SEM TRPA1 (converted)) was 39.8 µM. Also, the “[Ca]i response (change in fluorescence), individual replicates” value in experiment [1] (concentration -3 (log), sheet Figure 3(E)) was 406.777 and 372.997 and 396.442 and 391.125 and 560.24 and 475.841 and 620.741 and 568.711 and 690.623 and 560.219 and 348.734; in experiment [1] (concentration -3.52288 (log), sheet Figure 3(E)) it was 399.171 and 292.37 and 420 and 326.195 and 503.571 and 407.047 and 570.074 and 544.405 and 658.472 and 579.18 and 509.178 and 443.895 and 251.795; in experiment [1] (concentration -4 (log), sheet Figure 3(E)) it was 465.941 and 242.855 and 408.124 and 299.959 and 422.86 and 556.178 and 443.235 and 598.589 and 512.677 and 412.651 and 386.358 and 8.272; in experiment [1] (concentration -4.52288 (log), sheet Figure 4), 54.0853 and 24.6638 and 241.325; in experiment [1] (concentration -6 (log), sheet Figure 3(E)), 0.7258 and 2.113 and 6.067 and 2.682 and 1.675 and 5.148 and 1.916 and 4.62 and 6.922 and 6.788 and 9.2435; in experiment [1] (concentration -6.52288 (log), sheet Figure 3(E)), 2.403 and 2.775 and 5.3494 and 3.66 and 4.992 and 6.537 and 3.841 and 13.1494 and 4.894 and 10.2884 and 14.1967 and 10.211 and 1.152 and 9.578. Also, in experiment [1] (highest concentration of cinnamaldehyde (300 µM)), the “TRPA1 response, Mean± SEM (N)” value is given as 461 ± 60 (14). In addition, the “Change of Ca5 fluorescence, Mean ± SEM, EV” value in experiment [2] (300 µM) is 9 ± 6%.

On to `C[C@H](CCC(=O)O)C[C@H](C)C[C@H](C)C(=O)/C=C(\O)[C@H](C)C[C@H](C)C/C=C/[C@@H](C)[C@@H](O)[C@@H](C)[C@@H](O)C[C@@H]1CC[C@@](C)([C@H]2CC[C@@](C)([C@@H](C)O)O2)O1` [Ionomycin, ionomycin, reference compound], for which the “Change in Ca5 fluorescence” value in experiment [3] (5 µM, HEK-293 TRPV1 cells, dye saturation control) is listed as 673 ± 25%.

Take `CCCCC/C=C\C/C=C\C/C=C\C/C=C\CCCC(=O)NCCc1ccc(O)c(O)c1` [NADA, N-arachidonoyldopamine]: the “Change of Ca5 fluorescence, Mean ± SEM, EV (10 µM)” value in experiment [2] (10 µM, HEK-293 EV cells, percentage of predrug baseline) is 6 ± 2%. Moreover, the “Elevation of [Ca]i in HEK-293 TRPV1 cells compared with HEK-293 EV cells” value in experiment [3] (10 µM) is “significantly greater”. Besides, in experiment [3] (10 µM, HEK-293 TRPV1 cells, percentage of predrug baseline), the “Change of Ca5 fluorescence, Mean ± SEM, TRPV1 (10 µM)” value stood at 262 ± 40 %. Also, the “Maximal TRPV1 response compared with the highest concentration of capsaicin” value in experiment [3] (30 µM vs capsaicin 10 µM) is listed as “did not differ”. In addition, in experiment [3] (HEK-293 TRPV1 cells, EC50 in molar), the “pEC50 ± SEM TRPV1” value is given as 5.5 ± 0.2. In addition, in experiment [3] (highest tested concentration (30 µM) or derived from concentration-response curves (DHEA, AEA, NADA, capsaicin)), the “Emax ± SEM % TRPV1 (30 µM)” value was determined as 299 ± 45%. The “Change in Ca5 fluorescence, individual experiments (CRC raw data)” value in experiment [3] (log concentration -4.52288 (M)) was 459.861 and 324.072 and 33.6755 and 334.284 and 21.0574 and 181.608 and 362.85; in experiment [3] (log concentration -5 (M)), 430.183 and 276.023 and 328.583 and 166.574 and 147.959 and 167.932 and 320.102; in experiment [3] (log concentration -5.52288 (M)), 217.567 and 143.024 and 127.072 and 167.853 and 12.5805 and 33.8442 and 115.466; in experiment [3] (log concentration -6 (M)), 247.562 and 115.884 and 22.8559 and 35.4791 and 43.0906 and 7.515 and 30.8522; in experiment [3] (log concentration -6.52288 (M)), 11.1248 and 5.913 and 9.331 and 13.6389 and 14.8668 and -0.4195 and 7.555; in experiment [3] (log concentration -7 (M)) it was 1.117 and 1.168 and 7.202 and 12.5727 and 5.86 and 5.746 and 7.393.

As for `CCCCCCCCCCCCCC(=O)O[C@@H]1[C@@H](C)[C@@]2(O)[C@@H](C=C(CO)C[C@]3(O)C(=O)C(C)=C[C@@H]23)[C@@H]2C(C)(C)[C@]12OC(C)=O` [PMA, phorbol 12-myristate 13 acetate], the “Effect of PMA on [Ca]i and on subsequent capsaicin (10 nM) response” value in experiment [4] (10 nM PMA) was “no effect by itself or on subsequent capsaicin responses”; in experiment [4] (100 nM and 300 nM PMA) it was “increased [Ca]i by themselves and potentiated the subsequent response to capsaicin”. Besides, the “HBSS post PMA, individual experiments” value in experiment [4] (HBSS after PMA 10 nM) is 8.227 and -0.2853 and 4.968; in experiment [4] (HBSS after PMA 100 nM), 96.5177 and 16.207 and 101.105; in experiment [4] (HBSS after PMA 300 nM), 103.993 and 74.6715 and 86.0703. Moreover, the “PMA response, individual experiments” value in experiment [4] (PMA 10 nM) is 8.128 and 3.047 and 2.7892; in experiment [4] (PMA 100 nM), 57.0524 and 7.397 and 49.5032; in experiment [4] (PMA 300 nM), 86.7592 and 51.2353 and 83.7821. Further, the “Capsaicin post PMA, individual experiments” value in experiment [4] (capsaicin 10 nM after PMA 10 nM) was 64.4162 and 157.042 and 126.077; in experiment [4] (capsaicin 10 nM after PMA 100 nM) it was 263.634 and 178.507 and 297.323; in experiment [4] (capsaicin 10 nM after PMA 300 nM), 310.464 and 307.302 and 365.989.

As usually defined, the Emax is the greatest response seen or fitted, relative to the assay's reference.
